Experimental data from the NIST ThermoML archive (doi:10.1021/je060271a).

Settings: 283.15 K, Liquid, Vibrating tube method

CCCCCCCC(=O)OCC(COC(=O)CCCCCCC)(COC(=O)CCCCCCC)COC(=O)CCCCCCC [pentaerythritol tetraoctanoate]
Settings | mass density [kg/m3]
24659 kPa | 983.6
24685 kPa | 983.7
24711 kPa | 983.7
24742 kPa | 983.8
24769 kPa | 983.8
24795 kPa | 983.8
24827 kPa | 983.7
24853 kPa | 983.8
24885 kPa | 983.8
24912 kPa | 983.7
24938 kPa | 983.8
24965 kPa | 983.8
24997 kPa | 983.8
25024 kPa | 983.8
25051 kPa | 983.9
25084 kPa | 983.9
25110 kPa | 983.9
25143 kPa | 983.8
25170 kPa | 983.9
25197 kPa | 984
25229 kPa | 984
25256 kPa | 984
25284 kPa | 984
25312 kPa | 984
25344 kPa | 984
25372 kPa | 984
25405 kPa | 983.9
25433 kPa | 984.1
25461 kPa | 984.1
25494 kPa | 984.1
25521 kPa | 984.2
25549 kPa | 984.1
25583 kPa | 984.1
25611 kPa | 984.2
25639 kPa | 984.2
25673 kPa | 984.2
25701 kPa | 984.1
25730 kPa | 984.4
25758 kPa | 984.3
25792 kPa | 984.2
25821 kPa | 984.3
25850 kPa | 984.3
25884 kPa | 984.3
25912 kPa | 984.3
25941 kPa | 984.2
25976 kPa | 984.3
26004 kPa | 984.3
26034 kPa | 984.5
26069 kPa | 984.4
26098 kPa | 984.3
26126 kPa | 984.4
26162 kPa | 984.4
26191 kPa | 984.5
26220 kPa | 984.4
26250 kPa | 984.4
26286 kPa | 984.5
26315 kPa | 984.5
26350 kPa | 984.6
26380 kPa | 984.6
26411 kPa | 984.6
26442 kPa | 984.6
26478 kPa | 984.6
26508 kPa | 984.6
26538 kPa | 984.6
26568 kPa | 984.6
26604 kPa | 984.5
26634 kPa | 984.6
26666 kPa | 984.6
26702 kPa | 984.7
26733 kPa | 984.7
26770 kPa | 984.7
26802 kPa | 984.7
26834 kPa | 984.8
26866 kPa | 984.8
26897 kPa | 984.8
26929 kPa | 984.9
26966 kPa | 984.8
26997 kPa | 984.8
27034 kPa | 984.8
27066 kPa | 984.8
27098 kPa | 984.9
27129 kPa | 984.9
27167 kPa | 984.9
27199 kPa | 985
27237 kPa | 985.1
27270 kPa | 984.9
27302 kPa | 985.1
27340 kPa | 985.1
27372 kPa | 985
27404 kPa | 985
27437 kPa | 985
27476 kPa | 985.2
27508 kPa | 985.2
27546 kPa | 985.1
27579 kPa | 985.1
27612 kPa | 985.2
27651 kPa | 985.2
27685 kPa | 985.1
27718 kPa | 985.1
27752 kPa | 985.1
27792 kPa | 985.2
27825 kPa | 985.3
27859 kPa | 985.3
27899 kPa | 985.3
27932 kPa | 985.4
27972 kPa | 985.3
28007 kPa | 985.3
28040 kPa | 985.5
28074 kPa | 985.5
28116 kPa | 985.4
28150 kPa | 985.5
28185 kPa | 985.4
28226 kPa | 985.4
28260 kPa | 985.5
28302 kPa | 985.5
28336 kPa | 985.5
28371 kPa | 985.5
28406 kPa | 985.5
28448 kPa | 985.5
28483 kPa | 985.6
28519 kPa | 985.5
28561 kPa | 985.6
28596 kPa | 985.7
28632 kPa | 985.7
28676 kPa | 985.6
28712 kPa | 985.7
28748 kPa | 985.8
28784 kPa | 985.6
28827 kPa | 985.7
28863 kPa | 985.8
28900 kPa | 985.8
28943 kPa | 985.7
28980 kPa | 985.8
29017 kPa | 985.8
29061 kPa | 985.9
29097 kPa | 985.9
29135 kPa | 985.9
29173 kPa | 985.9
29217 kPa | 985.8
29255 kPa | 985.9
29293 kPa | 986
29338 kPa | 986
29375 kPa | 986
29413 kPa | 986.1
29458 kPa | 986
29496 kPa | 986
29534 kPa | 986.1
29579 kPa | 986.1
